In ChEMBL document CHEMBL4483862, “Open-source discovery of chemical leads for next-generation chemoprotective antimalarials” (2018) one finds IC50 and IC90 data, which are given here for 27 compounds.

For the experiment, the system named is Plasmodium berghei. In words: Luciferase/luciferin-expressing antifolate-resistant parasites were used to infect a culture of HepG2 cells that were pre-incubated with compounds. Infected hepatocytes emit light due to the luciferase reaction. Assay results are presented as the percent inhibition of light emission compared to control. […]. The class given is functional. Particulars: sporozoite; for IC90: read-out: LUCIFERASE INFECTION ASSAY - IC90.

[1] abbreviates: read-out: LUCIFERASE INFECTION ASSAY - IC50.

Usually IC50 stands for the point on the concentration scale where inhibition reaches its midpoint. The term IC90 denotes the point of the concentration-response curve where the effect stands at 90%. As to `Cc1nc(Oc2ccc3ccc(=O)oc3c2)c2c3c(sc2n1)CCCCC3`, the IC90 was greater than 10 µM. Further, under “PBLUC_HILL_SLOPE 3.34, 13.2, PBLUC_R_SQUARED 0.778, 0.263, read-out: LUCIFERASE INFECTION ASSAY - IC50”, the 50% inhibitory concentration (IC50) stood at 7.83 µM.

As for `Cc1cnc(C(=O)OCC(=O)N(CC(C)C)C2CCS(=O)(=O)C2)cn1` (centres undefined), the IC90 was greater than 10 µM. Moreover, for the setting “HEPG2TOX_HILL_SLOPE 0.131, HEPG2TOX_R_SQUARED 0.272, PBLUC_HILL_SLOPE 1.29, PBLUC_R_SQUARED 0.0136, read-out: LUCIFERASE INFECTION ASSAY - IC50”, the IC50 was greater than 10 µM.

As for `CC(C)(C)c1cc(C(=O)Nc2ccc(Br)c(Cl)c2)n(Cc2ccccc2)n1`, the IC90 is greater than 7.39 µM. The IC50 (FFLUC_HILL_SLOPE 13.4, FFLUC_R_SQUARED 0.471, HEPG2TOX_HILL_SLOPE 9.89, HEPG2TOX_R_SQUARED 0.67, PBLUC_HILL_SLOPE 12.6, PBLUC_R_SQUARED 0.293, read-out: LUCIFERASE INFECTION ASSAY - IC50) was greater than 7.39 µM.

`CCOc1cc2ncc(C#N)c(Nc3ccc(F)c(Cl)c3)c2cc1N`: the IC90 came to 6.3 µM. In addition, the IC50 (HEPG2TOX_HILL_SLOPE 1.25, HEPG2TOX_R_SQUARED 0.941, PBLUC_HILL_SLOPE 3.96, PBLUC_R_SQUARED 0.532, read-out: LUCIFERASE INFECTION ASSAY - IC50) came to 3.61 µM.

For `NC(=O)c1ccsc1NC(=O)CN1CCC(c2c[nH]c3ccccc23)CC1`, the IC90 is greater than 10 µM. Besides, under “FFLUC_HILL_SLOPE 7.73, FFLUC_R_SQUARED 0.279, read-out: LUCIFERASE INFECTION ASSAY - IC50”, the 50% inhibitory concentration (IC50) was greater than 10 µM.

Consider `CCCn1nc(C(=O)OCC(=O)c2cc(C)n(CC(F)(F)F)c2C)c2ccccc2c1=O`, for which the IC90 was greater than 10 µM. For the same compound, the IC50 (PBLUC_HILL_SLOPE 0.53, PBLUC_R_SQUARED 0.241, read-out: LUCIFERASE INFECTION ASSAY - IC50) was greater than 10 µM.

`Cn1c(-c2ccccc2)nc2cnc(-c3cccc(Cl)c3)cc21`: the IC90 turned out to be 3.69 µM. Further, under “HEPG2TOX_HILL_SLOPE 2.23, HEPG2TOX_R_SQUARED 0.754, PBLUC_HILL_SLOPE 11.6, PBLUC_R_SQUARED 0.591, read-out: LUCIFERASE INFECTION ASSAY - IC50”, the IC50 stood at 3.06 µM.

Regarding `O=C(c1[nH]nc2ccccc12)N1CCN(Cc2ccc(C(F)(F)F)cc2)CC1`, the IC90 was greater than 10 µM. Further, under “HEPG2TOX_HILL_SLOPE 2.95, HEPG2TOX_R_SQUARED 0.96, PBLUC_HILL_SLOPE 4.05, PBLUC_R_SQUARED 0.587, read-out: LUCIFERASE INFECTION ASSAY - IC50”, the IC50 was determined as 6.61 µM.

As to `CCN1C(=O)N(CCCc2cccnc2)C(=O)C12CCN(Cc1ccc(-c3ccccc3C)cc1)CC2`, the IC90 was determined as 2.68 µM. Also, for the setting “HEPG2TOX_HILL_SLOPE 4.7, HEPG2TOX_R_SQUARED 0.961, PBLUC_HILL_SLOPE 9.72, PBLUC_R_SQUARED 0.497, read-out: LUCIFERASE INFECTION ASSAY - IC50”, the IC50 came to 2.14 µM.

For the compound `CS(=O)(=O)Nc1cccc(-c2cn3c(-c4ccc(Cl)cc4)cnc3cn2)c1`, the IC90 is 1.05 µM. The IC50 (HEPG2TOX_HILL_SLOPE 10.9, HEPG2TOX_R_SQUARED 0.801, PBLUC_HILL_SLOPE 12.2, PBLUC_R_SQUARED 0.805, read-out: LUCIFERASE INFECTION ASSAY - IC50) was found to be 0.873 µM.

In the case of `O=c1c(Cl)c(NCC(c2ccco2)N2CCCCC2)cnn1-c1nc2ccccc2[nH]1` (centres undefined), the IC90 is greater than 10 µM. In addition, the concentration for half-maximal inhibition (IC50) (PBLUC_HILL_SLOPE 10.1, PBLUC_R_SQUARED 0.23, read-out: LUCIFERASE INFECTION ASSAY - IC50) worked out at 8.87 µM.

For the compound `CCN(CC(=O)Nc1ccccc1-c1ccccc1)Cc1nc(O)c2ccccc2n1`, the IC90 was found to be 7.89 µM. Further, the concentration for half-maximal inhibition (IC50) (FFLUC_HILL_SLOPE 18, FFLUC_R_SQUARED 0.273, HEPG2TOX_HILL_SLOPE 1.8, HEPG2TOX_R_SQUARED 0.962, PBLUC_HILL_SLOPE 1.44, PBLUC_R_SQUARED 0.751, read-out: LUCIFERASE INFECTION ASSAY - IC50) was determined as 1.72 µM.

With `COCOc1ccc(-c2cc(-c3ccc(S(C)(=O)=O)cc3)cnc2N)cc1`, the IC90 was found to be 1.3 µM. In addition, where the note is “PBLUC_HILL_SLOPE 4.16, PBLUC_R_SQUARED 0.931, read-out: LUCIFERASE INFECTION ASSAY - IC50”, the 50% inhibitory concentration (IC50) was determined as 0.765 µM.

Regarding `CCCn1c(-c2cccs2)nc2c(c(=O)c3ccccc3n2C)c1=O`, the concentration for an effect of 90% (IC90) amounted to 3.69 µM. Also, the IC50 (PBLUC_HILL_SLOPE 10.5, PBLUC_R_SQUARED 0.782, read-out: LUCIFERASE INFECTION ASSAY - IC50) turned out to be 3 µM.

In the case of `O=C(Nc1ccc2c(c1)OC(F)(F)O2)c1ccc(F)c(F)c1`, the IC90 was greater than 10 µM. Besides, under setting [1], the IC50 stood at 9.62 µM.

As to `CC(Sc1nnc(-c2ccccc2)c(-c2ccccc2)n1)C(=O)N1CCCC1` (centres undefined), the IC90 was found to be 1.49 µM. The IC50 (HEPG2TOX_HILL_SLOPE 2.07, HEPG2TOX_R_SQUARED 0.202, PBLUC_HILL_SLOPE 16.4, PBLUC_R_SQUARED 0.575, read-out: LUCIFERASE INFECTION ASSAY - IC50) was 1.3 µM.

For `O=C1C(=O)N(CCN2CCOCC2)c2ccc(Cl)cc21`, the IC90 is 9.44 µM. Also, under “PBLUC_HILL_SLOPE 1.82, PBLUC_R_SQUARED 0.307, read-out: LUCIFERASE INFECTION ASSAY - IC50”, the IC50 is 2.83 µM.

On to `O=C(CN(Cc1ccccc1Cl)S(=O)(=O)/C=C/c1ccccc1)Nc1ccc(F)cc1Cl`, for which the IC90 is greater than 10 µM. Also, the IC50 under setting [1] is greater than 10 µM.

Consider `COC(=O)c1ccc(OC(=O)c2cc3c(s2)CCC3)cc1`, for which the IC90 is greater than 10 µM. Moreover, the IC50 (FFLUC_HILL_SLOPE 8.2, FFLUC_R_SQUARED 0.68, read-out: LUCIFERASE INFECTION ASSAY - IC50) is greater than 10 µM.

Take `Cc1cc(NC(=O)N2CCN(Cc3sc4ccccc4c3Cl)CC2)no1`: the IC90 came to 1.17 µM. The IC50 (PBLUC_HILL_SLOPE 1.04, PBLUC_R_SQUARED 0.858, read-out: LUCIFERASE INFECTION ASSAY - IC50) worked out at 0.141 µM.

For `O=[N+]([O-])c1c[nH]c(-c2csc(-n3nccc3C(F)(F)F)n2)c1`, the IC90 was 4.09 µM. For the same compound, the IC50 under setting [1] was 1.82 µM.

In the case of `Cc1ccc(S(=O)(=O)CCC(=O)OCC(=O)NCC2CCCO2)cc1` (centres undefined), the IC90 was greater than 10 µM. The IC50 under setting [1] was greater than 10 µM.

As to `Cc1nn(C)c(NC(=O)c2ccc(Cl)cc2)c1Br`, the IC90 is greater than 10 µM. Where the note is “PBLUC_HILL_SLOPE 41, PBLUC_R_SQUARED 0.305, read-out: LUCIFERASE INFECTION ASSAY - IC50”, the IC50 is greater than 10 µM.

For the compound `Cc1cccc(COC(=O)C2CCN(C3=NS(=O)(=O)c4ccccc43)CC2)c1`, the IC90 is greater than 10 µM. Besides, the IC50 under setting [1] is greater than 10 µM.

Regarding `Cc1cc(C(=O)COC(=O)c2ccc[nH]c2=O)c(C)n1CC1CCCO1` (centres undefined), the 90% effect concentration (IC90) is greater than 10 µM. Moreover, where the note is “FFLUC_HILL_SLOPE 9.51, FFLUC_R_SQUARED 0.378, PBLUC_HILL_SLOPE 2.55, PBLUC_R_SQUARED 0.111, read-out: LUCIFERASE INFECTION ASSAY - IC50”, the IC50 is 6.62 µM.

In the case of `CC(C)n1ncc2c(C(=O)Nc3ccn(C)n3)cc(-c3cccs3)nc21`, the 90% effect concentration (IC90) is greater than 10 µM. The half-inhibitory concentration (IC50) under setting [1] was greater than 10 µM.

For `CC1CCc2c(sc3nc(Sc4nnnn4-c4ccccc4)nc(N)c23)C1` (centres undefined), the IC90 was greater than 10 µM. Further, the IC50 (PBLUC_HILL_SLOPE 2.12, PBLUC_R_SQUARED 0.375, read-out: LUCIFERASE INFECTION ASSAY - IC50) is 3.69 µM.
